We go through 1 substance from US8178506B2, “Oligomeric compounds and compositions for use in modulation of small non-coding RNAs” (Regulus Therapeutics Inc., priority 2003, dated 2012).

This data set has as its system mir-143 binding site within the coding sequence of ERK5. The data set can be described thus: pGL3-ERK5-cds luciferase assays in HeLa cells. Format: cell-based, human. Particulars: for luciferase expression: HeLa cells, 24 hours. The method, then:
An expression system based on the pGL3-Control (Promega Corp., Madison Wis.) reporter vector and comprising predicted miRNA binding sites was used in transient transfections of HeLa cells with plasmids expressing oligomeric compounds mimicking miRNAs, pre-miRNAs or pri-miRNAs in order to assess the ability of these miRNA mimics to bind and regulate the expression of the luciferase reporter. The effect of increasing the copy number of the miRNA-binding site in the target was also tested by including multiple binding sites in artificial reporter constructs. It is understood that the presence of multiple miRNA-binding sites in a target can include binding sites for different miRNAs.
The following reporter plasmids were constructed by cloning the specified fragment into the XbaI site of the pGL3-control plasmid, placing the potential miRNA-binding site in the 3′-UTR of the luciferase reporter: The reporter plasmid pGL3-bulge(×3) contains three contiguous copies of the sequence ([…]; herein incorporated as SEQ ID NO: 874) which represents a sequence complementary to the mir-143 miRNA except that it is missing 2 nucleotides such that the mir-143 miRNA is presumed to adopt a bulged structure when it hybridizes to this target sequence. The pGL3-GLO1 reporter plasmid contains a DNA fragment comprising the 3′-UTR of the GLO1 sequence; this fragment was PCR-amplified using a primer beginning at nucleotide number 621 of the GLO1 sequence (GenBank Accession NM_006708.1, SEQ ID NO: 821) and the downstream primer hybridizing to the poly A tail. The pGL3-PP2A reporter plasmid contains a DNA fragment comprising the 3′-UTR of the PP2A gene; this fragment was PCR-amplified using a primer beginning at nucleotide number 921 of the PP2A sequence (GenBank Accession NM_004156.1) and the downstream primer hybridizing to the poly A tail. The reporter plasmid pGL3-ERK5-3′-UTR(×1) contains one copy of the sequence […] (herein incorporated as SEQ ID NO: 875), found in the 3′-UTR of ERK5 and predicted by Lewis, et al. to be bound by the mir-143 miRNA, and the reporter plasmid pGL3-ERK5-3′UTR(×3) has three contiguous copies of this sequence. The reporter plasmid pGL3-ERK5-3′UTR(ext) contains one copy of the sequence […] (herein incorporated as SEQ ID NO: 876), which includes an additional ten nucleotides at either end of the mir-143 binding site in 3′-UTR of ERK5 predicted by Lewis, et al. (Lewis et al., Cell, 2003, 115, 787-798). The plasmids pGL3-ERK5-cds(×1), pGL3-ERK5-cds(×2), pGL3-ERK5-cds(×3), and pGL3-ERK5-cds(×5) contain one, two, three or five contiguous copies, respectively, of the novel mir-143 binding site ([…]; herein incorporated as SEQ ID NO: 877) we identified within the coding sequence of ERK5. The unmodified pGL3-Control luciferase reporter vector was used as a negative control, and the pGL3-mir-143 sensor reporter plasmid was used as a positive control.
HeLa cells were routinely cultured and passaged as described. In some embodiments, HeLa cells were transfected with 0.05 μg of the relevant pGL3-sensor plasmid and 0.01 μg pRL-CMV plasmid. Additionally, in some embodiments, cells were treated at various dosages (11 nM, 33 nM, and 100 nM) with the following oligomeric compound mimics: 1) ds-mir-143, or 2) ds-Control as described. In accordance with methods described in Example 12, a luciferase assay was performed 24-hours after transfection. The results, shown in Tables 40 and 41, are an average of three trials. Data are presented as percent untreated control (luciferase plasmid only, not treated with oligomeric compound) luciferase expression, normalized to pRL-CMV levels.

“ds-mir-143: double-stranded RNA of ISIS 342199 hybridized to its perfect complement ISIS 342200 (sense UGAGAUGAAGCACUGUAGCUCA; antisense UGAGCUACAGUGCUUCAUCUCA; RNA, backbone not given here)”: the “luciferase expression from pGL3-ERK5-cds(×1) or pGL3-ERK5-cds(×2)” value (HeLa, 100 nM) was “did reduce luciferase expression”. Besides, the “luciferase activity from pGL3-ERK5-cds(×3) or pGL3-ERK5-cds(×5)” value (HeLa, 11, 33 and 100 nM) was “reduction in luciferase activity”. For the same substance, for the setting “HeLa, 11, 33 and 100 nM”, the “luciferase activity from pGL3-ERK5-cds(×5), dose response” value was “dose-responsiveness”. The “luciferase activity from pGL3-ERK5-cds(×1) or pGL3-ERK5-cds(×2)” value (HeLa, 11- or 33 nM) was “did not appear to inhibit luciferase activity”. This substance also gave a luciferase expression (Table 41, pGL3-ERK5-cds(x1), 11 nM) of 101.3 percent untreated control; a luciferase expression (Table 41, pGL3-ERK5-cds(x1), 33 nM) of 115.4 percent untreated control; a luciferase expression (Table 41, pGL3-ERK5-cds(x1), 100 nM) of 77.4 percent untreated control; a luciferase expression (Table 41, pGL3-ERK5-cds(x2), 11 nM) of 92.7 percent untreated control; a luciferase expression (Table 41, pGL3-ERK5-cds(x2), 33 nM) of 113.8 percent untreated control; a luciferase expression (Table 41, pGL3-ERK5-cds(x2), 100 nM) of 63.6 percent untreated control. Further, the luciferase expression (Table 41, pGL3-ERK5-cds(x3), 11 nM) worked out at 73.5 percent untreated control; the luciferase expression (Table 41, pGL3-ERK5-cds(x3), 33 nM) came to 77.9 percent untreated control; the luciferase expression (Table 41, pGL3-ERK5-cds(x3), 100 nM) came to 49.4 percent untreated control; the luciferase expression (Table 41, pGL3-ERK5-cds(x5), 11 nM) is recorded as 49.4 percent untreated control; the luciferase expression (Table 41, pGL3-ERK5-cds(x5), 33 nM) worked out at 44.5 percent untreated control; the luciferase expression (Table 41, pGL3-ERK5-cds(x5), 100 nM) was 23.9 percent untreated control.
